Assay results from PMC3947346 (Psychopharmacology, 2013).

How the values were obtained:
male C57BL/6 J mice [1] = test: repeated drinking-in-the-dark
male C57BL/6 J mice [2] = test: intermittent access to ethanol
[3] = in vivo pharmacokinetic study, plasma; parameters: species or system mice; settings: 10 mg/kg p.o.
male C57BL/6 J mice [4] = test: blood ethanol concentrations; assay type: in vivo; settings: 17 mg/kg p.o.

## COc1nn(-c2ccc(F)c(NC(C)=O)c2)c(=O)n(Cc2ccc(Cl)c(F)c2)c1=O [ADX71441]
Male C57BL/6 J mice [1]; 30 mg/kg p.o.
  motor activity, observation: signs of mild reduction in motor activity in a few animals
Male C57BL/6 J mice [1]; 3, 10, 30 mg/kg p.o., hours 1-4, post hoc only 10 and 30 mg/kg
  DID ethanol intake (gram per kilogram), effect vs vehicle: significantly and dose-dependently reduced
Male C57BL/6 J mice [1]; DID, 3 mg/kg p.o., 1 h
  Percent change from baseline, volume of ethanol (ml): −25.93±11.92%
Male C57BL/6 J mice [1]; DID, 3 mg/kg p.o., 2 h
  Percent change from baseline, volume of ethanol (ml): −23.12±7.29%
Male C57BL/6 J mice [1]; DID, 3 mg/kg p.o., 3 h
  Percent change from baseline, volume of ethanol (ml): −9.84±6.84%
Male C57BL/6 J mice [1]; DID, 3 mg/kg p.o., 4 h
  Percent change from baseline, volume of ethanol (ml): −4.83±8.82%
Male C57BL/6 J mice [1]; DID, 10 mg/kg p.o., 1 h
  Percent change from baseline, volume of ethanol (ml): −70.44±13.55 %
Male C57BL/6 J mice [1]; DID, 10 mg/kg p.o., 2 h
  Percent change from baseline, volume of ethanol (ml): −57.53±8.28 %
Male C57BL/6 J mice [1]; DID, 10 mg/kg p.o., 3 h
  Percent change from baseline, volume of ethanol (ml): −36.11±5.39 %
Male C57BL/6 J mice [1]; DID, 10 mg/kg p.o., 4 h
  Percent change from baseline, volume of ethanol (ml): −25.11±7.68 %
Male C57BL/6 J mice [1]; DID, 30 mg/kg p.o., 1 h
  Percent change from baseline, volume of ethanol (ml): −80.73±4.11 %
Male C57BL/6 J mice [1]; DID, 30 mg/kg p.o., 2 h
  Percent change from baseline, volume of ethanol (ml): −86.04±4.05 %
Male C57BL/6 J mice [1]; DID, 30 mg/kg p.o., 3 h
  Percent change from baseline, volume of ethanol (ml): −80.99±4.39 %
Male C57BL/6 J mice [1]; DID, 30 mg/kg p.o., 4 h
  Percent change from baseline, volume of ethanol (ml): −69.57±3.89 %
Male C57BL/6 J mice [1]; DID, highest dose (30 mg/kg p.o.), across the 4-h test
  Mean percent change from vehicle baseline, ethanol intake: −70–80%
Male C57BL/6 J mice [2]; IA, 3, 10, 17 mg/kg p.o., any time point
  Ethanol preference, effect: not significantly affected
Male C57BL/6 J mice [2]; IA, 3 mg/kg p.o., 2 h
  Percent change from baseline, volume of ethanol: −3.92±12.96%
  Percent change from baseline, volume of water: 46.78±40.53%
Male C57BL/6 J mice [2]; IA, 3 mg/kg p.o., 4 h
  Percent change from baseline, volume of ethanol: −8.21±7.51%
  Percent change from baseline, volume of water: 17.35±22.27%
Male C57BL/6 J mice [2]; IA, 3 mg/kg p.o., 24 h
  Percent change from baseline, volume of ethanol: 0.31±6.16%
  Percent change from baseline, volume of water: −7.73±19.28%
Male C57BL/6 J mice [2]; IA, 10 mg/kg p.o., 2 h
  Percent change from baseline, volume of ethanol: −37.54±18.17%
  Percent change from baseline, volume of water: 55.56±45.39%
Male C57BL/6 J mice [2]; IA, 10 mg/kg p.o., 4 h
  Percent change from baseline, volume of ethanol: −29.60±10.55 %
  Percent change from baseline, volume of water: 19.72±20.18%
Male C57BL/6 J mice [2]; IA, 10 mg/kg p.o., 24 h
  Percent change from baseline, volume of ethanol: −10.12±5.36%
  Percent change from baseline, volume of water: 9.05±18.21%
Male C57BL/6 J mice [2]; IA, 17 mg/kg p.o., 2 h
  Percent change from baseline, volume of ethanol: −66.39±10.30 %
  Percent change from baseline, volume of water: −26.90±22.63%
Male C57BL/6 J mice [2]; IA, 17 mg/kg p.o., 4 h
  Percent change from baseline, volume of ethanol: −44.07±9.06 %
  Percent change from baseline, volume of water: −9.62±13.96%
Male C57BL/6 J mice [2]; IA, 17 mg/kg p.o., 24 h
  Percent change from baseline, volume of ethanol: −15.30±4.81 %
  Percent change from baseline, volume of water: 10.83±11.73%
Male C57BL/6 J mice [2]; p.o., 4-h access period, 10 and 17 mg/kg most effective, not at 2 h
  IA ethanol drinking (gram per kilogram), effect vs vehicle: reduced ethanol drinking
[3]; 4 h
  mean plasma concentration at 4 h as % of the mean Cmax: 72%
[3]; 24 h
  mean plasma concentration at 24 h as % of the mean Cmax: 5%
[3]; male C57BL/6 mice
  AUC0–8: 6,970 ng h/ml
  C max ± SD: 673 ± 50 ng/mL
  Plasma concentration at 0.25 h: 538 ± 51 ng/mL
  Plasma concentration ± SD at 1 h: 629 ± 61 ng/mL
  Plasma concentration ± SD at 4 h: 487 ± 62 ng/mL
  Plasma concentration ± SD at 24 h: 36.4 ± 33 ng/mL
  T 1/2 (terminal half-life): 5.3 h
  T max: 2 h
[3]; male C57BL/6 mice, Tlast=24 h
  AUClast ± SD: 6,700±309 ng h/ml
Male C57BL/6 J mice [4]
  BEC after 4 h IA, difference vs vehicle treatment: not statistically different
Male C57BL/6 J mice [4]; after 4 h IA access, vehicle 47.73±9.18 mg/dl
  Average BEC (blood ethanol concentration): 35.74 ± 5.34 mg/dL

## O=C1CC[C@@]2(O)[C@H]3Cc4ccc(O)c5c4[C@@]2(CCN3CC2CC2)[C@H]1O5 [Naltrexone, reference compound]
Male C57BL/6 J mice [1]; 0.1, 1, 10 mg/kg i.p., any subsequent hour (2-4 h)
  DID ethanol intake (gram per kilogram), effect vs vehicle: no effect
Male C57BL/6 J mice [1]; 0.1, 1, 10 mg/kg i.p., first hour, all doses
  DID ethanol intake (gram per kilogram), effect vs vehicle: significantly reduced ethanol drinking
Male C57BL/6 J mice [1]; DID, 10 mg/kg i.p., initial hour
  Mean percent decrease of ethanol intake (ml): approximately 57%
Male C57BL/6 J mice [2]; 10 mg/kg i.p., 2-h access
  IA ethanol drinking (gram per kilogram), effect vs saline vehicle: decreased ethanol drinking
Male C57BL/6 J mice [2]; IA, 10 mg/kg i.p., 2 h
  Mean percent decrease of ethanol intake (ml): approximately 36%
